Measurements from patent US4313943A, “7-Chloro-2,3-dihydro-5-phenyl-1-propargyl-1H-1,4-benzodiazepine-2-one, and a pharmaceutical composition thereof” (priority 1972, dated 1982).

Columns and labels:
[1] = Acute toxicity in the mouse (oral); conditions: in vivo, mouse (male)
Description: (§1) The test compounds shown in Table 2 were administered orally to male mice and rats in the form of a suspension in a 1% solution of sodium carboxymethyl cellulose. The LD50 (lethal dose 50%) was calculated by the method of Litchfield and Wilcoxon.

[2] = Acute toxicity in the rat (oral); conditions: in vivo
Description: as §1

[3] = Myorelaxant activity in the mouse (traction test); assay type: in vivo
Description: This was determined by the traction test of Joulon Courvoisier, following Boissier and Simon, in which the mouse is suspended by its front paws to a horizontal metal wire, and the animal's capacity to get up with its hind paws is observed. The test compounds were administered orally to the animals, in the doses shown in Table 5, as suspensions in 1% sodium carboxymethyl cellulose solution; and the animals were tested 30 minutes and 180 minutes after administration. The test animals were deemed to be myorelaxant if unable to get up within 5 seconds.

[4] = Motor coordination in the rat (Rota-rod method, Dunham and Miya); assay type: in vivo
Description: The method of Dunham and Miya was used, which consists in placing the test animal on a rod rotating at 14 r.p.m., and recording the percentage of animals which fall off within 2 minutes. The test compound 1 was administered orally to the animals, in the various doses shown in Table 1, as a suspension in 1% sodium carboxymethyl cellulose solution. The animals were then tested 30 minutes and 60 minutes after the administration of the test compound.

C#CCN1C(=O)CN=C(c2ccccc2)c2cc(Cl)ccc21 [Compound 1, 7-chloro-2,3-dihydro-5-phenyl-1-propargyl-1H-1,4-benzodiazepin-2-one]
LD50 [1]: 1300 mg/kg | LD50 [2]: 6490 mg/kg | Percentage of myorelaxant animals ([3]; 1.5 mg/kg oral, after 30 minutes): 20% | Percentage of myorelaxant animals ([3]; 1.5 mg/kg oral, after 180 minutes): 15% | Percentage of myorelaxant animals ([3]; 3.0 mg/kg oral, after 30 minutes): 60% | Percentage of myorelaxant animals ([3]; 3.0 mg/kg oral, after 180 minutes): 55% | Percentage of myorelaxant animals ([3]; 6.0 mg/kg oral, after 30 minutes): 80% | Percentage of myorelaxant animals ([3]; 6.0 mg/kg oral, after 180 minutes): 70% | Percentage of animals falling within 2 minutes ([4]; 3 mg/kg oral, 30 minutes after administration): 0% | Percentage of animals falling within 2 minutes ([4]; 3 mg/kg oral, 60 minutes after administration): 0% | Percentage of animals falling within 2 minutes ([4]; 6 mg/kg oral, 30 minutes after administration): 50% | Percentage of animals falling within 2 minutes ([4]; 6 mg/kg oral, 60 minutes after administration): 17% | Percentage of animals falling within 2 minutes ([4]; 12 mg/kg oral, 30 minutes after administration): 100% | Percentage of animals falling within 2 minutes ([4]; 12 mg/kg oral, 60 minutes after administration): 50%
